Here are results for one molecule from PMC11784026, “Phase 1 study of the safety, tolerability, and pharmacokinetics of a synthetic macrocyclic peptide antibiotic (BRII-693) in healthy adult participants” (Antimicrobial Agents and Chemotherapy, 2024).

How the values of this data set were obtained:
During the MAD phase of the study, repeat dosing of 100, 150, and 200 mg of BRII-693 was evaluated in sequential cohorts (cohorts 8–10) composed of eight participants each (six active; two placebo). Participants first received a single dose of BRII-693 or placebo as a 1-hour IV infusion on day 1; and then 48 hours later on day 3 through day 9, participants received BRII-693 or placebo every 6 hours (q6h) for 7 days, with the last dose in the morning on day 9. Participants were discharged on day 11. In the remaining two MAD cohorts (cohorts 11 and 12), repeat dosing of 150 mg of BRII-693 q6h for 14 days was evaluated in non-Chinese and Chinese (first and second generation) participants. Each cohort comprises 12 participants (10 active and 2 placebo). The last dose was in the morning on day 14, and participants were discharged on day 17.
For the 7-day MAD cohorts 8–10, blood samples were collected (i) on day 1 before dosing and at 0.5, 1, 1.25, 1.5, 2, 4, 6, 8, 12, 24, 36, and 48 hours following the start of dosing infusion; (ii) on day 3 prior to the morning dose and at 0.5, 1, 1.25, 1.5, 2, 4, and 6 hours after the start of the first dosing infusion; (iii) on day 9 before dosing and at 0.5, 1, 1.25, 1.5, 2, 4, 6, 8, 12, 24, 36, and 48 hours following the start of the last dosing infusion in the morning. Urine samples were collected before dosing and at the time intervals of 0–4, 4–8, 8–12, 12–24, 24–36, and 36–48 hours after the start of dosing infusion on days 1 and 9.
For the 14-day MAD cohorts 11 and 12, blood samples were collected (i) on day 1 prior to and at 0.5, 1, 1.25, 1.5, 2, 4, and 6 hours after the start of the first dosing infusion and (ii) on day 14 before dosing and at 0.5, 1, 1.25, 1.5, 2, 4, 6, 8, 12, 24, 36, 48, 60, and 72 hours following the start of the last dosing infusion in the morning. Urine samples were collected before dosing and at the time intervals of 0–4, 4–8, 8–12, 12–24, 24–36, 36–48, and 48–72 hours after the start of dosing infusion on Day 14.
All blood samples were collected into EDTA-containing vials, immediately placed on ice, and centrifuged at 3,000× g for approximately 10 minutes at 4°C. Supernatant plasma was transferred to two pre-chilled cryopreservation vials (at least 1.0 mL per vial) and stored at −80°C until shipped to the analytical laboratory. Urine samples collected for each time interval were refrigerated, aliquoted, and stored at −80°C until shipped to the analytical laboratory. Plasma and urine samples were analyzed for BRII-693 concentrations using validated high-performance liquid chromatography with detection by mass spectrometry method (BioAgilytix, San Diego, CA). The assay range was 50.0–50,000 ng/mL in both plasma and urine.
Area under the concentration-time curve (AUC) from time zero to the time of the last quantifiable concentration (AUC0–last), AUC from time zero to infinity (AUC0–inf), AUC within a dosing interval of 6 hours (AUC0–6h), maximum observed concentration (Cmax), time to reach maximum concentration (Tmax), apparent terminal half-life (t1/2), total clearance (CL), volume of distribution during terminal phase (Vz), and accumulation ratio based on AUC (ARAUC) were determined for BRII-693 in plasma. Urine parameters included amount and percentage of dose recovered in urine as unchanged drug over each collection interval and cumulatively and renal clearance (CLR). PK parameters were determined using noncompartmental methods in Phoenix WinNonlin (Certara, Version 8.3).

Where two headings read alike, the source gives them in different places. Where a SMILES comes first, the peptide text is derived from it. Bridges are numbered along the chain shown (N, C = ends). [ ]: non-standard residue; d: D form. The star is where a group is joined. X1 = O=C(c1ccc(Cl)cc1Cl)*; Dab = NCC[C@H](N)C(=O)O; Abu = CC[C@H](N)C(=O)O; Dap = NC[C@H](N)C(=O)O

On to `CC[C@@H]1NC(=O)[C@@H](CC(C)C)NC(=O)[C@H](CCN)NC(=O)[C@@H](NC(=O)[C@H](CN)NC(=O)[C@@H](NC(=O)[C@H](CCN)NC(=O)c2ccc(Cl)cc2Cl)[C@@H](C)O)CCNC(=O)[C@H]([C@@H](C)O)NC(=O)[C@H](CCN)NC(=O)[C@H](CCN)NC1=O` [BRII-693] (X1-[Dab]T[Dap][Dab][Dab][dL][Abu][Dab][Dab]T; lactam 4-C; N-terminus assumed), for which the CLR by setting is: (Last q6h dose (day 9), 7-day MAD 100 mg q6h × 7, renal clearance, n = 6, arithmetic mean ± SD) 1.40 ± 0.60 L/h; (Last q6h dose (day 9), 7-day MAD 150 mg q6h × 7, renal clearance, n = 5, arithmetic mean ± SD) 1.60 ± 0.60 L/h; (Last q6h dose (day 9), 7-day MAD 200 mg q6h × 7, renal clearance, n = 5, arithmetic mean ± SD) 1.41 ± 0.23 L/h; (Last q6h dose (day 14), 14-day MAD 150 mg q6h × 14, Chinese, renal clearance, n = 6, arithmetic mean ± SD) 1.67 ± 0.43 L/h; (Last q6h dose (day 14), 14-day MAD 150 mg q6h × 14, non-Chinese, renal clearance, n = 10, arithmetic mean ± SD) 1.91 ± 0.79 L/h. The “fe0–48h” value reads like this: (Last q6h dose (day 9), 7-day MAD 100 mg q6h × 7, urinary recovery over 48 h, n = 6, arithmetic mean ± SD) 66.5 ± 18.0%; (Last q6h dose (day 9), 7-day MAD 150 mg q6h × 7, urinary recovery over 48 h, n = 5, arithmetic mean ± SD) 57.2 ± 19.2%; (Last q6h dose (day 9), 7-day MAD 200 mg q6h × 7, urinary recovery over 48 h, n = 5, arithmetic mean ± SD) 74.3 ± 30.3%; (Last q6h dose (day 14), 14-day MAD 150 mg q6h × 14, Chinese, urinary recovery over 48 h, n = 6, arithmetic mean ± SD) 70.9 ± 22.0%; (Last q6h dose (day 14), 14-day MAD 150 mg q6h × 14, non-Chinese, urinary recovery over 48 h, n = 10, arithmetic mean ± SD) 74.1 ± 25.6%. Also, the “Urinary recovery compared with polymyxin B” value (comparison with literature polymyxin B data (ref 11)) was “higher urinary recovery than polymyxin B”.
